Where two headings read alike, the source gives them in different places.

In general, LogD refers to the decadic logarithm of the distribution of all forms, ionised or not, between an organic phase and buffer at a given pH. A word on the Ki: it is a measure of affinity in units of concentration, obtained from inhibition or displacement. One may read the Kd as a measure of binding affinity in units of concentration. Low values mean higher affinity, high ones lower affinity.

The conditions of series [1]: cited from earlier work.
On the set-up of series [2]: method as in PMID 19910432. The conditions noted are these: porcine brain, 20 min post injection; cited from earlier work.
For series [3] the following is noted: cited from earlier work. The source holds these as a separate data set.
Details of series [4]: method as in PMID 16934699, PMID 17998102. The conditions noted are these: cited from earlier work.
Details of series [5]: method as in PMID 16934699. The note with it: rats, 5 min post injection; cited from earlier work.
In series [6] the target is rat histamine H3 receptors. Also noted: method as in earlier work. The note with it: rat histamine H3 receptor; cited from earlier work.
The target of series [7] is human histamine H3 receptors. On the set-up: method as in earlier work. The conditions noted are these: human histamine H3 receptor; cited from earlier work.
For series [8], the target named is T1, rat histamine H3 receptor (Rattus norvegicus, UniProt Q9QYN8).
T1 construct: from tissue; host or cells: whole brain of male Sprague-Dawley rats, homogenate pellet
T1 sequence (Q9QYN8 whole entry): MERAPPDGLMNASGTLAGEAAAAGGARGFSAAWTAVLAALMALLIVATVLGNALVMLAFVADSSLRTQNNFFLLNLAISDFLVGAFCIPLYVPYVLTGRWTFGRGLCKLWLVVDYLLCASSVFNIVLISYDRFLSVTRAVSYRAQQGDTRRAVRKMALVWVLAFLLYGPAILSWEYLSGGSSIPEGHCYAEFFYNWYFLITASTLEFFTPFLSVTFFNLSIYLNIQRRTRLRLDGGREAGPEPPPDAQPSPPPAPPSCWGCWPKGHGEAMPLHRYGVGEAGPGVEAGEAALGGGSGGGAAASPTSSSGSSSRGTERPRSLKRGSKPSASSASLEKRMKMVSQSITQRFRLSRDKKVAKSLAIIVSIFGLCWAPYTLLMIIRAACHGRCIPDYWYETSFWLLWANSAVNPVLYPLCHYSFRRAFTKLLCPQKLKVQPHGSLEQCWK
As to the kind of experiment: In vitro saturation radioligand binding to rat brain homogenates. The note with it: whole rat brain homogenates, one-site binding model, n = 8. The procedure:
Animals (male Sprague-Dawley rats; Harlan, UK) were killed by cervical dislocation. Whole brains were immediately excised and placed into ice-cold Tris-HCl buffer (Tris […], pH 7.4; EDTA 5 mM), homogenised and centrifuged at approx 40,000 g for 10 min at 4°C (Beckman J2-21M/E). The pellet was resuspended in 25 ml of buffer and centrifuged as previously, then the final pellet was resuspended in 10 ml of ice cold Tris buffer and stored at −50°C until required. Protein content was analysed using Bio-Rad reagent; absorbance was read on a spectrophotometer at 562 nm. [^125I]WYE230949 binding assays were carried out in a final incubation volume of 500 µl containing Tris-HCl buffer (Tris […], pH 7.4; EDTA 5 mM), brain homogenates (1.47 to 2.27 mg/ml of protein) and [^125I]WYE230949 (0.04–102 nM). Non-specific binding was defined in the presence of 10 µM iodophenpropit. Samples were incubated at 30°C for 30 min, then filtered rapidly through Whatman GF/B filters (pre-treated with 0.3% polyethylenimine; Aldrich, UK) using a Brandel M24R cell harvester and the filters washed with 3×4 ml ice-cold Tris buffer. Radioactivity on the filters was determined by liquid scintillation counting a minimum of 48 h after filtration. All assays were performed in triplicate. Specific binding was determined by subtracting non-specific binding from total binding at each concentration; Kd and Bmax values derived using GraphPad Prism (version 4.03), and expressed as mean ±SEM of the triplicate assays.

For series [9], the target named is T1, rat histamine H3 receptor. The conditions noted are these: rat striatum; cited from earlier work.
For series [10] the following is noted: cited from earlier work. This is another data set of the same source.

Take `[11CH3]NC(=O)c1ccc(Oc2ccc3c(c2)CCN(C2CCC2)CC3)nc1` [[^11C]GSK189254]: the “parent remaining in plasma” value is recorded as 58% in series [1] (30 minutes post injection) and 55% in [1] (after 90 min). Also, in [2], the brain uptake is 9.0 %ID/L. Further, in series [3], the log distribution coefficient (LogD) is reported as 1.7.
Regarding `[18F]c1ccc(COCCCc2cnc[nH]2)cc1` [[^18F]fluoroproxyfan], the “parent remaining in plasma” value in [1] (30 minutes post injection) is reported as 43%. In addition, the “parent remaining in the brain” value is 94% in [4] (30 min post injection) and 68% in series [4] (120 min post injection).
For the molecule `C(#Cc1cccc([11CH2]N2CCOCC2)c1)CCN1CCCCC1` [[^11C]JNJ-10181457, 4-[3-(4-piperidin-1-yl-but-1-ynyl)-[^11C]benzyl]-morpholine], the brain uptake in series [5] is 1.38 %ID/g. The “parent remaining in the brain” value in series [4] (30 min post injection) is on record as “greater than 80%”.
As for `O=C(c1ccc(Cn2cnc3cccc(I)c32)cc1)N1CC[C@H](N2CCCC2)C1` [WYE-230949], the Ki was 5.7 nM in series [6] and 0.3 nM in [7].
`O=C(c1ccc(Cn2cnc3cccc(I)c32)cc1)N1CC[C@H](N2CCCC2)C1` [[^125I]WYE-230949] gave a Kd in series [8] of 6.9 nM.
With `[123I]c1ccc(COCCCc2cnc[nH]2)cc1` [[^123I]iodoproxyfan], in series [9], the Bmax was 78 fmol/mg of protein. The peak brain uptake in [10] is on record as roughly 1.5 %ID/g.
